For data set [1], the system named is intracellular Mycobacterium tuberculosis. To be noted: cited from earlier work.
The test system of data set [2] is gram-positive microorganisms. Conditions: many gram-positive microorganisms; cited from earlier work.
Data set [3] concerns gram-negative bacteria. Conditions: a large number of gram-negative bacteria; cited from earlier work.
In data set [4] the test system is tuberculosis Mycobacterium. To be noted: cited from earlier work.
The subject of data set [5] is Streptococcus pyogenes. Conditions: Streptococcus pyogenes resistant to penicillin and other antibiotics; cited from earlier work.
For data set [6] the following is noted: in vivo; cited from earlier work.
Data set [7] concerns Mycobacterium tuberculosis Erdman (ATCC 35801). The data set can be described thus: anti-tuberculosis activity on a model of mice infected with Mycobacterium tuberculosis (acute tuberculosis infection). Conditions: Rifalazil 2.5 mg/kg/day intraperitoneally, 3 week administration, BALB/c mice.

On to `CO[C@H]1/C=C/O[C@@]2(C)Oc3c(C)c(O)c4c(c3C2=O)C2=NC3(CCN(CC(C)C)CC3)NC2=C(NC(=O)/C(C)=C\C=C\[C@H](C)[C@H](O)[C@@H](C)[C@@H](O)[C@@H](C)[C@H](OC(C)=O)[C@@H]1C)C4=O` [Rifabutin], for which, in data set [1], the “active concentration relative to Rifampicin” value is given as 2 times less.
`CO[C@H]1/C=C/O[C@@]2(C)Oc3c(C)c(O)c4c(O)c(c(/C=N/N5CCN(C)CC5)c(O)c4c3C2=O)NC(=O)/C(C)=C\C=C\[C@H](C)[C@H](O)[C@@H](C)[C@@H](O)[C@@H](C)[C@H](OC(C)=O)[C@@H]1C` [Rifampicin]: the values for the minimal inhibiting concentration in data set [2], in data set [3] and in data set [4] were 1 to 100 ng/mL, 1000 to 10000 ng/mL and 5 to 500 ng/mL, respectively. Moreover, in data set [5], the “share of Streptococcus pyogenes sensitive” value is “Over 95%”.
Regarding Rifalazil, the half-life of elimination in data set [6] is more than 100 h. The “Lowering of micobacterium titers in mice lungs in comparison with the control (CMC) on the 31 day” value in data set [7] was determined as 87 times.

These data come from US9381201B2, “Pharmaceutical composition and kit for treating bacterial infections” (priority 2011, dated 2016).
